# Data published in patent US5075296A, “Azacyclooctadiene compound and pharmaceutical use” (Eisai Co., Ltd., priority 1989, dated 1991).
# Columns and labels:
# [1] = system: KB cells; test: antitumor activity in vitro with cultured KB cells (growth inhibition, Coulter counter); type: cell-based, human; settings: four days, 37° C., MEM - 10% calf serum; for IC50: Homo sapiens, KB, 96 h, read-out: ED50 (concentration at which the growth inhibition was substantially 50% based on the control); for ED50 (concentration at which the growth inhibition was substantially 50% based on the control): 5760 min
# Description: The antitumor activity of the compounds of the present invention was determined in vitro with cultured KB cells.
# The experiment was conducted by using KB derived from a human epidermoid carcinoma of the mouth and Eagle's minimal essential medium (MEM) - 10% calf serum at 37° C. in a carbon dioxide incubator (5% CO2).
# KB cells were diluted at a dilution rate of 1×10^4 /ml medium. 2 ml of the sample thus formed was placed in a 30-mm plastic dish so that the final concentration of the compounds of the present invention would be 100, 30, 10, 3 or 1 μg/ml. After four days, the cells were peeled from the dish surface with trypsin and the number of the cells was counted with a Coulter counter.
# The criterion according to NCI (U.S.A.) was employed to determine the concentration (ED50) at which the growth inhibition was substantially 50% based on the control.
# [2] = system: S-180 salcoma cells; test: antitumor activity in ICR mice inoculated with S-180 salcoma cells (increase in life-span); type: in vivo, mouse (female ICR mice); settings: intra-peritoneal, once a day Day 1 to 5; for Number of surviving mice: observation period 52 days, saline control 0/12, DMSO 0/7; for Prolongation extent of life: saline control 0, DMSO -11; for Average days of the prolongation of life: saline control 13.3 ± 3.7, DMSO 12.0 ± 3.0
# Description: Female ICR mice being 6 weeks old were inoculated abdominally with 0.2 ml of a sample of cell suspension in PBS containing 5×10^5 S-180 salcoma cells, on Day 0. Once a day for 5 days (Day 1 to 5) from the next day, they were inoculated abdominally with the above shown compounds of A-IV-b, B-VI-6 and D-I-a, respectively, dispersed in 6 wt. % dimethylsulfoxide solution, with intra-peritoneal injection of 25 or 50 mg/kg. A saline and a solvent were used for reference control. 12 to 7 mice were used in the saline control and the drug test, respectively. Antitumor activity was determined by the mean survival time (prolongation of life) of the test group (T) with that of the control group (C) and is shown in terms of an increase in life-span (prolongation extent of life), that is, ((T/C)×100%). The observation period was 52 days and survivors were excluded from calculation.
compound,measurement,setting,value
COc1cc(CN2C(=O)OCC2Cc2ccc3c(c2)OCO3)cc(OC)c1OC (stereo not shown) [A-III],IC50,[1],35 µg/mL
COc1cc2c(c(OC)c1OC)-c1cc3c(cc1CC1COC(=O)N1C2)OCO3 (stereo not shown) [A-IV-a],ED50 (concentration at which the growth inhibition was substantially 50% based on the control),[1],47.0 µg/mL
COc1cc2c(c(OC)c1OC)-c1cc3c(cc1CC(CO)N(C=O)C2)OCO3 (stereo not shown) [A-VII-a],IC50,[1],< 0.3 µg/mL
COc1cc(CN2C(=O)NCC2Cc2ccc3c(c2)OCO3)cc(OC)c1OC (stereo not shown) [B-V],IC50,[1],47 µg/mL
COc1c(O)cc2c(c1OC)-c1cc3c(cc1CC1COC(=O)N1C2)OCO3 (stereo not shown) [A-VIII-a],IC50,[1],17 µg/mL
COc1cc(C2c3cc4c(cc3C(N=[N+]=[N-])C3COC(=O)N23)OCO4)cc(OC)c1OC [D-X-a],ED50 (concentration at which the growth inhibition was substantially 50% based on the control),[1],0.68 µg/mL
COc1cc(C2c3cc4c(cc3C(N=[N+]=[N-])C3COC(=O)N23)OCO4)cc(OC)c1OC [D-X-b],ED50 (concentration at which the growth inhibition was substantially 50% based on the control),[1],< 0.3 µg/mL
COc1cc2c(c(OC)c1OC)-c1cc3c(cc1CC1COC(=O)N1C2)OCO3 (stereo not shown) [A-IV-b],ED50 (concentration at which the growth inhibition was substantially 50% based on the control),[1],< 0.3 µg/mL
same,Number of surviving mice,[2]; 25 mg/kg,0/7
same,Prolongation extent of life,[2]; 25 mg/kg,-4%
same,Average days of the prolongation of life,[2]; 25 mg/kg,12.9 ± 2.3 days
same,Number of surviving mice,[2]; 50 mg/kg,0/7
same,Prolongation extent of life,[2]; 50 mg/kg,40%
same,Average days of the prolongation of life,[2]; 50 mg/kg,19.0 ± 5.5 days
COc1cc2c(c(OC)c1O)-c1cc3c(cc1CC1COC(=O)N1C2)OCO3 (stereo not shown) [A-IX-a],IC50,[1],50 µg/mL
COc1cc2c(c(OC)c1OC)-c1cc3c(cc1CC1CN(CC(=O)OC(C)(C)C)C(=O)N1C2)OCO3 (stereo not shown) [B-VII-b],IC50,[1],1.7 µg/mL
COc1cc(C2c3cc4c(cc3C(N)C3COC(=O)N23)OCO4)cc(OC)c1OC [D-XI-b],IC50,[1],< 0.3 µg/mL
COc1cc2c(c(OC)c1OC)-c1cc3c(cc1CC(COC(C)=O)N(C)C2)OCO3 (stereo not shown) [A-VI-a],IC50,[1],1.65 µg/mL
COc1cc2c(c(OC)c1OC)-c1cc3c(cc1CC1CNC(=O)N1C2)OCO3 (stereo not shown) [B-VI-b],IC50,[1],< 0.3 µg/mL
same,Number of surviving mice,[2]; 25 mg/kg,2/7
same,Prolongation extent of life,[2]; 25 mg/kg,50%
same,Average days of the prolongation of life,[2]; 25 mg/kg,20.2 ± 4.2 days
same,Number of surviving mice,[2]; 50 mg/kg,0/7
same,Prolongation extent of life,[2]; 50 mg/kg,120%
same,Average days of the prolongation of life,[2]; 50 mg/kg,29.7 ± 3.9 days
COc1cc2c(c(OC)c1OC)-c1cc3c(cc1CC(CO)N(C)C2)OCO3 (stereo not shown) [A-V-a],IC50,[1],1.5 µg/mL
COc1cc2c(c(OC)c1OC)-c1cc3c(cc1CC1CN(CC(=O)O)C(=O)N1C2)OCO3 (stereo not shown) [B-VIII-b],IC50,[1],5.4 µg/mL
COc1cc(C2c3cc4c(cc3CC3COC(=O)N32)OCO4)cc(OC)c1OC [D-I-a],Number of surviving mice,[2]; 25 mg/kg,0/7
same,Prolongation extent of life,[2]; 25 mg/kg,62%
same,Average days of the prolongation of life,[2]; 25 mg/kg,21.9 ± 4.0 days
same,Number of surviving mice,[2]; 50 mg/kg,0/7
same,Prolongation extent of life,[2]; 50 mg/kg,48%
same,Average days of the prolongation of life,[2]; 50 mg/kg,20.0 ± 5.6 days
COc1cc2c(c(OC)c1OC)-c1cc3c(cc1CC(CO)N(C)C2)OCO3 (stereo not shown) [A-V-b],ED50 (concentration at which the growth inhibition was substantially 50% based on the control),[1],1.1 µg/mL
